From patent US10350210B2, “EGFR and ALK dual inhibitor” (PRECEDO PHARMACEUTICALS CO., LTD, priority 2015, dated 2019)

Assays:
NCI-H1975 = assay: Growth of cancer cells (Cell Titer-Glo viability), NCI-H1975; format: cell-based; conditions: Homo sapiens; NCI-H1975 (EGFR L858R/T790M double mutant), 72 hrs
Excerpt: (§1) By testing the effect of the novel kinase inhibitors on the proliferation of cancer cells, the selectivity of the compounds of the present disclosure in inhibiting the proliferation of cancer cells was further assessed. In this example, human non-small cell lung cancer cell NCI-H1975 (expressing EGFR L858R/T790M double mutant gene), human skin squamous carcinoma cell A431 (expressing wild-type EGFR gene), non-small cell lung cancer NCI-H3255 (expressing EGFR L858R mutant gene), non-small cell lung cancer cell NCI-H3122 (expressing ALK gene), human non-small cell lung cancer cell A549 (expressing wild-type EGFR gene), human non-small cell lung cancer cell NCI-H2122 (expressing wild-type EGFR gene), human non-small cell lung cancer cell NCI-H460 (expressing wild-type EGFR gene), human non-small cell lung cancer cell PC-9 (expressing EGFR delE746_A750 mutant gene), Chinese hamster ovary cell CHO (Cricetulus griseus, hamster, Chinese, ovary), Chinese hamster lung cell CHL, human non-small cell lung cancer cell HCC827 (expressing mutant EGFR del19 gene), human lung adenocarcinoma cell HCC4006 (expressing mutant EGFR del19 gene), human non-small cell lung cancer cell NCI-H2228 (expressing wild-type ALK gene), and mouse primary B cell BaF3 were used, and the above cells were all purchased from ATCC (US). In addition, mouse BaF3-TEL-ALK (stably expressing ALK kinase), mouse BaF3-ALK-F1174L (stably expressing mutant ALK F1174L kinase), mouse BaF3-NPM-ALK (stably expressing ALK kinase), mouse BaF3-TEL-EGFR (stably expressing EGFR kinase), mouse BaF3-TEL-EGFR-T790M (stably expressing EGFR T790M mutant kinase), mouse BaF3-FL-EGFR-Del19 (stably expressing EGFR delE746_A750 mutant kinase), mouse BaF3-TEL-EGFR-L858R (stably expressing EGFR L858R mutant kinase), mouse BaF3-FL-EGFR-T790M-L858R (stably expressing EGFR T790M/L858R mutant kinase), mouse BaF3-TEL-INSR (stably expressing INSR protein), mouse BaF3-TEL-IGF1R (stably expressing IGF1R Protein), mouse BaF3-EML4-ALK (stably expressing EML4-ALK Protein), mouse BaF3-TEL-JAK3 (stably expressing JAK3 kinase protein), mouse BaF3-TEL-CSF1R (stably expressing CSF1R protein), and mouse BaF3-TEL-ALK-F1196M (stably expressing ALK F1196M mutant kinase) were also used in this example. The above cell lines were all established by our laboratory via the following process: kinase proteins or protein domain sequences of human ALK, ALK F1174L, EGFR, EGFR T790M, EGFR delE746_A750, EGFR L858, EGFR T790M/L858R, INSR, IGF1R, EML4-ALK, JAK3, CSF1R, ALK F1196M were amplified respectively by PCR, and were respectively inserted into MSCV-Puro vector (Clontech) with N-terminal TEL fragments and/or NPM fragments and/or TPR fragments; the resultants were stably transfected into mouse BaF3 cells by the means of retrovirus, and the IL-3 growth factors were removed, and eventually the ALK, ALK F1174L, EGFR, EGFR T790M, EGFR delE746_A750, EGFR L858, EGFR T790M/L858R, INSR, IGF1R, EML4-ALK, JAK3, CSF1R, ALK F1196M-transferred protein dependent cell lines were obtained.
(§2) The number of viable cells was determined quantitatively by a microplate reader using Cell Titer-Glo® (Promega, US) chemiluminescence cell viability assay kit.

PC-9 = assay: Growth of cancer cells (Cell Titer-Glo viability), PC-9; format: cell-based; conditions: Homo sapiens; PC-9 (EGFR delE746_A750 mutant), 72 hrs
Excerpt: as §1, §2

A431 = assay: Growth of cancer cells (Cell Titer-Glo viability), A431; format: cell-based; conditions: Homo sapiens, A-431; A431 (wild-type EGFR), 72 hrs; read-out: GI50
Excerpt: as §1, §2

CHO = assay: Cell growth (Cell Titer-Glo viability), CHO; format: cell-based, Chinese hamster; conditions: Cricetulus griseus; CHO Chinese hamster ovary cell, 72 hrs; read-out: GI50
Excerpt: as §1, §2

CHL = assay: Cell growth (Cell Titer-Glo viability), CHL; format: cell-based, Chinese hamster; conditions: Cricetulus griseus; CHL Chinese hamster lung cell, 72 hrs; read-out: GI50
Excerpt: as §1, §2

NCI-H2122 = assay: Growth of cancer cells (Cell Titer-Glo viability), NCI-H2122; format: cell-based; conditions: Homo sapiens; NCI-H2122 (wild-type EGFR), 72 hrs
Excerpt: as §1, §2

A549 = assay: Growth of cancer cells (Cell Titer-Glo viability), A549; format: cell-based; conditions: Homo sapiens; A549 (wild-type EGFR), 72 hrs
Excerpt: as §1, §2

HCC827 = assay: Growth of cancer cells (Cell Titer-Glo viability), HCC827; format: cell-based; conditions: Homo sapiens; HCC827 (mutant EGFR del19), 72 hrs
Excerpt: as §1, §2

NCI-H3122 = assay: Growth of cancer cells (Cell Titer-Glo viability), NCI-H3122; format: cell-based; conditions: Homo sapiens; NCI-H3122 (expressing ALK gene), 72 hrs; read-out: GI50
Excerpt: as §1, §2

NCI-H2228 = assay: Growth of cancer cells (Cell Titer-Glo viability), NCI-H2228; format: cell-based; conditions: Homo sapiens; NCI-H2228 (wild-type ALK), 72 hrs
Excerpt: as §1, §2

BaF3 = assay: Cell growth (Cell Titer-Glo viability), BaF3; format: cell-based; conditions: BaF3 mouse primary B cell, 72 hrs
Excerpt: as §1, §2

BaF3-TEL-ALK = assay: Cell growth (Cell Titer-Glo viability), BaF3-TEL-ALK; format: cell-based; conditions: Mus musculus; BaF3-TEL-ALK (stably expressing ALK kinase), 72 hrs
Excerpt: as §1, §2

BaF3-ALK-F1174L = assay: Cell growth (Cell Titer-Glo viability), BaF3-ALK-F1174L; format: cell-based; conditions: Mus musculus; BaF3-ALK-F1174L (mutant ALK F1174L kinase), 72 hrs
Excerpt: as §1, §2

BaF3-TEL-EGFR = assay: Cell growth (Cell Titer-Glo viability), BaF3-TEL-EGFR; format: cell-based; conditions: Mus musculus; BaF3-TEL-EGFR (stably expressing EGFR kinase), 72 hrs
Excerpt: as §1, §2

BaF3-TEL-EGFR-T790M = assay: Cell growth (Cell Titer-Glo viability), BaF3-TEL-EGFR-T790M; format: cell-based; conditions: Mus musculus; BaF3-TEL-EGFR-T790M (EGFR T790M mutant kinase), 72 hrs
Excerpt: as §1, §2

BaF3-FL-EGFR-Del19 = assay: Cell growth (Cell Titer-Glo viability), BaF3-FL-EGFR-Del19; format: cell-based; conditions: Mus musculus; BaF3-FL-EGFR-Del19 (EGFR delE746_A750 mutant kinase), 72 hrs
Excerpt: as §1, §2

HCC4006 = assay: Growth of cancer cells (Cell Titer-Glo viability), HCC4006; format: cell-based; conditions: Homo sapiens; HCC4006 (mutant EGFR del19), 72 hrs
Excerpt: as §1, §2

NCI-H3255 = assay: Growth of cancer cells (Cell Titer-Glo viability), NCI-H3255; format: cell-based; conditions: Homo sapiens; NCI-H3255 (EGFR L858R mutant), 72 hrs
Excerpt: as §1, §2

BaF3-NPM-ALK = assay: Cell growth (Cell Titer-Glo viability), BaF3-NPM-ALK; format: cell-based; conditions: Mus musculus; BaF3-NPM-ALK (stably expressing ALK kinase), 72 hrs
Excerpt: as §1, §2

BaF3-TEL-INSR = assay: Cell growth (Cell Titer-Glo viability), BaF3-TEL-INSR; format: cell-based; conditions: Mus musculus; BaF3-TEL-INSR (stably expressing INSR protein), 72 hrs
Excerpt: as §1, §2

Row | Compound | GI50 (NCI-H1975) [nM] | GI50 (PC-9) [nM] | GI50 (A431) [nM] | GI50 (NCI-H2122) [nM] | GI50 (A549) [nM] | GI50 (HCC827) [nM] | GI50 (NCI-H3122) [nM] | GI50 (NCI-H2228) [nM] | GI50 (BaF3) [nM] | GI50 (BaF3-TEL-ALK) [nM] | GI50 (BaF3-ALK-F1174L) [nM] | GI50 (BaF3-TEL-EGFR) [nM] | GI50 (BaF3-TEL-EGFR-T790M) [nM] | GI50 (BaF3-FL-EGFR-Del19) [nM] | GI50 (HCC4006) [nM] | GI50 (NCI-H3255) [nM] | GI50 (BaF3-NPM-ALK) [nM] | GI50 (BaF3-TEL-INSR) [nM] | GI50 (CHO) [nM] | GI50 (CHL) [nM]
1 | C=CC(=O)Nc1cc(Nc2ncc(Cl)c(Nc3ccccc3S(=O)(=O)C(C)C)n2)c(OC)cc1N1CCN(C(=O)OC(C)(C)C)CC1 [Compound 3, tert-butyl 4-(2-acrylamido-4-(5-chloro-4-(2-(isopropylsulfonyl)phenylamino)pyrimidin-2-ylamino)-5-methoxyphenyl)piperazine-1-carbonate] | 380 | 250 | 1200 | 710 | > 10000 | 370 | 32 | 560 | 4700 | 24 | 1300 | – | 290 | 130 | 1100 | – | – | – | > 10000 | > 10000
2 | C=CC(=O)Nc1cc(Nc2ncc(Cl)c(Nc3ccccc3S(=O)(=O)C(C)C)n2)c(OC)cc1N1CCN(CCF)CC1 [Compound 9, N-(5-(5-chloro-4-(2-(isopropylsulfonyl)phenylamino)pyrimidin-2-ylamino)-2-(4-(2-fluoroethyl)piperazin-1-yl)-4-methoxyphenyl)acrylamide] | 59 | 43 | 320 | 680 | 1300 | 35 | 42 | 260 | 2900 | > 10000 | 540 | 650 | 47 | < 0.3 | – | – | – | – | 1000 | 4300
3 | C=CC(=O)Nc1cc(Nc2ncc(Cl)c(Nc3ccc(F)c(Cl)c3)n2)c(OC)cc1N1CCN(C)CC1 [Compound 21, N-(5-(5-chloro-4-(3-chloro-4-fluorophenylamino)pyrimidin-2-ylamino)-4-methoxy-2-(4-methylpiperazin-1-yl)phenyl)acrylamide] | 100 | 31 | 1100 | 1400 | > 10000 | 28 | 300 | 78 | 6800 | 43 | 740 | – | 35 | < 0.3 | – | – | – | – | 6200 | > 10000

Continued, in another order:

Row | GI50 (NCI-H1975) [nM] | GI50 (PC-9) [nM] | GI50 (A431) [nM] | GI50 (NCI-H2122) [nM] | GI50 (A549) [nM] | GI50 (HCC827) [nM] | GI50 (NCI-H3122) [nM] | GI50 (NCI-H2228) [nM] | GI50 (BaF3) [nM] | GI50 (BaF3-TEL-ALK) [nM] | GI50 (BaF3-ALK-F1174L) [nM] | GI50 (BaF3-TEL-EGFR) [nM] | GI50 (BaF3-TEL-EGFR-T790M) [nM] | GI50 (BaF3-FL-EGFR-Del19) [nM] | GI50 (HCC4006) [nM] | GI50 (NCI-H3255) [nM] | GI50 (BaF3-NPM-ALK) [nM] | GI50 (BaF3-TEL-INSR) [nM] | Compound | GI50 (CHO) [nM] | GI50 (CHL) [nM]
4 | 43 | 5 | 250 | 3600 | 870 | 10 | 33 | 250 | 1600 | > 10000 | 670 | 450 | 12 | < 0.3 | – | – | – | – | C=CC(=O)Nc1cc(Nc2ncc(Cl)c(Nc3ccccc3S(=O)(=O)C(C)C)n2)c(OC)cc1N1CCN(C)CC1 [Compound 2, N-(5-(5-chloro-4-(2-(isopropylsulfonyl)phenylamino)pyrimidin-2-ylamino)-4-methoxy-2-(4-methylpiperazin-1-yl)phenyl)acrylamide] | 500 | 2000
5 | 31 | < 3 | 220 | 370 | 600 | < 3 | 11 | 490 | 1100 | > 10000 | 530 | 500 | 10 | < 0.3 | – | – | – | – | C=CC(=O)Nc1cc(Nc2ncc(Cl)c(Nc3ccccc3S(=O)(=O)N(C)C)n2)c(OC)cc1N1CCN(C)CC1 [Compound 32, N-(5-(5-chloro-4-(2-(N,N-dimethylsulfamido)phenylamino)pyrimidin-2-ylamino)-4-methoxy-2-(4-methylpiperazin-1-yl)phenyl)acrylamide] | 340 | 1600
6 | 26 | 5 | – | – | 1700 | < 0.3 | 37 | – | > 10000 | 74 | – | – | – | – | – | 140 | 310 | 72 | C=CC(=O)Nc1cc(Nc2ncc(Cl)c(Nc3ccccc3P(C)(C)=O)n2)c(OC)cc1N1CCN(CC)CC1 [Compound 47, N-(5-(5-chloro-4-(2-(dimethylphosphinoyl)phenylamino)pyrimidin-2-ylamino)-2-(4-ethylpiperazin-1-yl)-4-methoxyphenyl)acrylamide] | – | –
7 | 41 | 32 | – | – | 5300 | 5 | 78 | – | 5300 | 190 | – | – | – | – | – | 200 | 380 | 290 | C=CC(=O)Nc1cc(Nc2ncc(Cl)c(Nc3ccccc3P(C)(C)=O)n2)c(OC)cc1N1CCC(N2CCCCC2)CC1 [Compound 48, N-(5-(5-chloro-4-(2-(dimethylphosphinoyl)phenylamino)pyrimidin-2-ylamino)-4-methoxy-2-(4-(piperidin-1-yl)piperidin-1-yl)phenyl)acrylamide] | – | –
8 | 220 | 120 | – | – | 8600 | 15 | 140 | – | > 10000 | 450 | – | – | – | – | – | 350 | 600 | 920 | C=CC(=O)Nc1cc(Nc2ncc(Cl)c(Nc3ccccc3P(C)(C)=O)n2)c(OC)cc1N1CCC(N(C)C)CC1 [Compound 49, N-(5-(5-chloro-4-(2-(dimethylphosphinoyl)phenylamino)pyrimidin-2-ylamino)-2-(4-(dimethylamino)piperidin-1-yl)-4-methoxyphenyl)acrylamide] | – | –
